From patent US11174287B2, “Central nervous system homing peptides and uses thereof” (UNIVERSITY OF MARYLAND, BALTIMORE, priority 2017, dated 2021)
Ends that are not written are not given here.

Columns and labels:
[1] = tested on: inflamed central nervous system (spinal cord, brain) of EAE mice; experiment: NIR imaging of brain and spinal cord after i.v. injection of Cy7-labeled peptide (IVIS Xenogen); format: in vivo, mouse; conditions: for accumulation (NIR signal) in the spinal cord: perfused
Procedure: The antigen was prepared by emulsifying the myelin oligodendrocyte glycoprotein (MOG) region of 35-55 peptide sequence with at least >98% purity based on mass spectrophotometry (CS Bio, CA, USA) with an equal volume of complete Freund's adjuvant (CFA) containing 5 mg/ml of heat killed desiccated M. tuberculosis-H37RA (Bacto, MI, USA). The suspension was thoroughly mixed to form a thick emulsion. Experimental autoimmune encephalomyelitis (EAE), which closely resembles human multiple sclerosis (MS) was induced in C57BL/6 mice by subcutaneous injection of 200 μg/MOG/mouse. In addition, 2 doses of 200-400 ng each of Pertussis toxin (Calbiochem, CA, USA) were administered i.p. after MOG injection at 0 and 48 hours.
Near Infrared (NIR) Cyanine 7 (Cy7) dye-labeled test peptide CRGGKRSSC (SEQ ID NO:14) or control peptide was injected into the tail vein of diseased (EAE) mice and naive (control) mice. The peptides were allowed to circulate for 24 hours. Thereafter, mice were euthanized, perfused extensively through the heart using PBS. Following that, the brain and spinal cord were removed and scanned for NIR imaging signals using IVIS Xenogen imaging System.

[2] = tested on: spleen, kidney, liver and lung tissue of normal mice; experiment: Peptide overlay assay, FITC-labeled peptide binding in various organs of normal mice; set-up: species or system mouse
Source text: (§1) The peptide sequences were synthesized by Genscript (NJ, USA) with at least 95% purity. For fluorescent peptides, fluorescein isothiocyanate (FITC) dye was conjugated at the amino terminus of peptides. The excitation/emission wavelengths for FITC were 490/520 nm.

[3] = tested on: spleen, kidney, liver and lung tissue of EAE mice; experiment: Peptide overlay assay, FITC-labeled peptide binding to various organs of EAE mice; set-up: species or system mouse
Source text: as §1

[4] = tested on: spinal cord and brain cerebellum of EAE mice; experiment: FITC-labeled peptide binding to spinal cord and brain cerebellum; set-up: species or system mouse; conditions: compared to scrambled peptide CSGRRGKSC
Source text: as §1

KRSS-Cy7: Near Infrared cyanine 7 (Cy7) dye-labeled test peptide CRGGKRSSC (SEQ ID NO:14) (cysteine pairing not given here; also: Cy7 dye label, site not given here)
NIR signal in the cerebellum ([1]; EAE mice versus control mice and control peptide, intensity relative to spinal cord, 24 hours): much lower in intensity
accumulation (NIR signal) in the spinal cord ([1]; EAE mice, tail vein injection, 24 hours circulation): significantly higher accumulation
accumulation (NIR signal) in the spinal cord ([1]; naive (control) mice, tail vein injection, 24 hours circulation): barely showed any detectable signal
NIR signal in the cerebrum ([1]; tail vein injection, 24 hours circulation): no signal was detected

CRAKGRDAC (cysteine pairing not given here; also: FITC label, site not given here) [CNS-homing peptide containing the RAK motif]
binding of FITC-labeled peptide to spleen, kidney, liver and lung tissue [2]: minimal binding
binding of FITC-labeled peptide to spleen, kidney, liver and lung tissue [3]: minimal binding except for lung

CRGGKRSSC (cysteine pairing not given here; also: FITC label, site not given here) [CNS-homing peptide from CX7C phage library, denoted "KRSS"]
homing when injected into the bloodstream ([1]; EAE mice versus normal mice): preferentially homed to inflamed spinal cord of EAE mice but not in normal mice
binding of FITC-labeled peptide to spleen, kidney, liver and lung tissue [2]: minimal binding except for spleen
binding of FITC-labeled peptide to spleen, kidney, liver and lung tissue [3]: minimal binding
binding of FITC-labeled peptide to spinal cord and cerebellum [4]: significantly higher binding
